Laboratory results from patent publication US20260001911A1, “CYCLIC PEPTIDE COMPOUND CONTAINING PIPERAZIC ACID, METHOD OF PRODUCING SAME, AND USES OF SAME” (MolGenBio Co., Ltd., priority 2020, published 2026).
Where two headings read alike, the source gives them in different places. Numbered stars: 1 amine (or outer) side, 2 acyl side, 3 side chain; on linkers, the order of the positions; unused ones are H or OH. Square brackets hold non-standard residues; d marks the D form. Peptide text beside a SMILES is read from it. NMeF = CN[CH](Cc1ccccc1)C(=O)O; X1 = O=C(C1CCCNN1[*:1])[*:2]; NMeV = CN[CH](C(=O)O)C(C)C; NMeS = CN[CH](CO)C(=O)O; NMeA = CN[CH](C)C(=O)O; βAla = NCCC(=O)O

Experiments:
[1] = test system: Lung adenocarcinoma cell A549; experiment: cells
Method: (§1) 6 types of cancer cell lines of Lung adenocarcinoma cell A549, colorectal cancer cell HCT116, breast cancer cell MDA-MB-231, liver adenocarcinoma cell SK-HEP-1, stomach adenocarcinoma cell SNU638, and chronic myeloid leukemia cell K562,and a normal cell line of pulmonary fibroblast MRC-5 were purchased from Korean Cell Line Bank (Seoul, Korea).
(§2) With Lenziamide compound prepared as in Example 1 added, the cell lines were cultured for about 72 hours. Thereafter, the resulting cell cultures were stained with sulforhodamine (SRB) that […] and washed to remove non-binding dye, and the stained cells were suspended in 10 mM of Tris (pH 10.0). The absorbance was measured at 515 nm and the cell proliferation was measured. Using TableCurve 2D v5.01 software (Systant Software Inc., Richmond, CA, USA), half maximal inhibitory concentration (IC50) value was calculated by nonlinear regression analysis method. All reagents were purchased from Sigma-Aldrich. As a positive control, etoposide was used.

[2] = test system: breast cancer cell MDA-MB-231; experiment: cells
Method: as §1, §2

[3] = test system: chronic myeloid leukemia cell K562; experiment: cells
Method: as §1, §2

[4] = test system: colorectal cancer cell HCT116; experiment: cells
Method: as §1, §2

[5] = test system: liver adenocarcinoma cell SK-HEP-1; experiment: cells
Method: as §1, §2

[6] = test system: pulmonary fibroblast MRC-5; experiment: cells
Method: as §1, §2

[7] = test system: stomach adenocarcinoma cell SNU638; experiment: cells
Method: as §1, §2

[8] = test system: HCT116-5-FU resistant cell line; experiment: SRB cell growth inhibition, 5-fluorouracil resistant HCT116-5-FU
Method: as §2
In order to prepare HCT116-5-FU resistant cell line, 5-fluorouracil was treated to HCT116 cells 3 times a week, and only surviving cells were subcultured with treatment of increasing concentrations of 5-fluorouracil for 3 months. HCT116-5-FU resistant cell line was established by finally collecting and culturing only the surviving cells.

[9] = test system: colorectal cancer cell line HCT116; experiment: Cell cycle analysis by flow cytometry; type: cell-based, human
Method: In order to identify the action mechanism of lenziamide A showing an excellent cell proliferation inhibiting efficacy, cells of colorectal cancer cell line HCT116 were treated with lenziamide A at a concentration of 0 μM, 1.25 μM, 2.5 μM, or […]. The cell cycle control effect of lenziamide A was confirmed by using flow cytometry method, and the results are shown in FIGS. 2A and 2B.

[10] = test system: HCT116 cells; experiment: Annexin V/propidium iodide dual-stain analysis; type: cell-based, human
Method: In order to confirm that sub G1 cell accumulation due to G2/M arrest effect of lenziamide A leads to cell apoptosis, HCT116 cells were treated with different concentrations of lenziamide A. Thereafter, cell death induction efficacy of lenziamide A was evaluated by using Annexin V/propidium iodide dual-stain analysis method which can identify cell deaths. The results of Annexin V/propidium iodide dual-stain analysis were shown in FIG. 3A, and stages of cells according to the concentration of lenziamide A were shown in FIG. 3B. The ratios (%) of live cells, early apoptosis, late apoptosis, necrosis, and total cell death were calculated.

[11] = test system: HCT116 colorectal cancer xenograft; experiment: HCT116 xenograft animal model; type: in vivo; settings: 10, 30 mg/kg intravenous
Method: Cells of HCT116, a human-derived colorectal cancer cell line, were diluted to a concentration of 5×10^6 units/mL in RPMI (Roswell Park Memorial Institute) medium, and 0.2 mL of the diluted cells was injected subcutaneously to right flank of BALB/c mice (5-week old, male). When the size of the tumor reached about 100 mm^3, groups were randomly divided based on the size of the tumor.
Lenziamide A was administered by intravenous injection at a dose of 10 mg/body weight kg or 30 mg/body weight kg to the prepared xenograft animal models. A mixture mixed at a ratio of dimethyl sulfoxide: Cremophor: saline=0.5:0.5:9 was used as a negative control, and irinotecan was used as a positive control. Volume of the tumor (mm^3), body weight of the xenograft animal model (g), and final weight of the tumor (g) were measured from the first day of administration, and the results are shown in FIGS. 4A to 4C.

[12] = test system: HCT116-5-FU resistant cell line xenograft; experiment: HCT116-5-FU resistant xenograft animal model; type: in vivo, BALB/c mice; settings: 10 mg/kg intravenous
Method: HCT116-5-FU resistant cell line prepared as described in Example 2-5 was diluted to a concentration of […] in RPMI medium, and 0.2 mL of the diluted cell line was injected subcutaneously to right flanks of BALB/c mice (5-week old, male). When the size of the tumor reached about 100 mm^3, groups were randomly divided based on the size of the tumor.
Lenziamide A (10 mg/body weight kg), 5-FU (30 mg/body weight kg), or a combination thereof (10 mg/body weight kg of lenziamide A+30 mg/body weight kg of 5-FU) was administered by intravenous injection to resistant cancer cell line injected xenograft animal models. A mixture mixed at a ratio of dimethyl sulfoxide: Cremophor: saline=0.5:0.5:9 was used as a negative control. Volumes of tumor (mm^3) and body weights of the xenograft animal models (g) were measured from the first day of administration, and the results are shown in FIGS. 5A and 5B.

[13] = test system: metastatic colorectal cancer cell line (L-2); experiment: Expression of metastasis related biomarkers; type: cell-based; settings: L-2 cells, 0 μM to 4 μM
Method: of non-metastatic cancer, thereby making it very difficult to treat it. A colorectal cancer cell line (C-1) was injected into appendix of laboratory mice and left for 6 weeks to artificially induce growth and metastasis of tumor, and colorectal cancer cells metastasized to the liver (L-2) were isolated and cultured. After administering 0 μM to 4 μM of lenziamide A to colorectal cancer cell line (C-1) and metastatic colorectal cancer cell line (L-2) obtained above, expression of biomarkers related to metastasis of cancer was identified by reverse transcription polymerase chain reaction (RT-PCR), and the results are shown in FIG. 6A.

[14] = test system: metastatic colorectal cancer cell line (L-2); experiment: Metastatic colorectal cancer cell (L-2) injected animal model; type: in vivo, laboratory mice; settings: 5 mg/kg or 15 mg/kg
Method: As described in Example 2-7 (1), a metastatic colorectal cancer cell line (L-2) was re-injected into appendix of laboratory mice to form tumor, and lenziamide A was administered at a dose of 5 mg/body weight kg or 15 mg/body weight kg. A mixture mixed at a ratio of dimethyl sulfoxide: Cremophor: saline=0.5:0.5:9 was used as a negative control. 10 mg/body weight kg of irinotecan was administered as a positive control. Volumes of tumor (mm3) and body weights of the xenograft animal model (g) were measured from the first day of administration, and the results are shown in FIGS. 6B and 6C.

[15] = Homo sapiens, HCT-116, read-out: IC50 HCT116
[16] = Homo sapiens, read-out: IC50 HCT116-5-FU

Compound	IC50 ([1]; 72 h) [nM]	IC50 ([2]; 72 h) [nM]	IC50 ([3]; 72 h) [nM]	IC50 ([4]; 72 h) [nM]	IC50 ([5]; 72 h) [nM]	IC50 ([6]; 72 h) [nM]	IC50 ([7]; 72 h) [nM]	IC50 [4, 15] [nM]	Fold change (HCT116-5-FU/HCT116) [8]	IC50 [8, 16] [nM]	also measured
CC(C)CC1NC(C)C(Cc2ccccc2)N(C)C(=O)C(C)NC(=O)C(C(C)C)N(C)C(=O)CCNC(=O)C(C)NC(=O)C(C(C)C)NC(=O)C(Cc2ccccc2)N(C)C(=O)C2CCCNN2C(=O)C(CO)N(C)C1=O (stereo not shown) [Lenziamide E]	1780	1590	1210	1010	960	> 20000	1320	–	–	–	–
O=c1[nH]cc(F)c(=O)[nH]1 [5-fluorouracil]	–	–	–	–	–	–	–	4220	8.70	36700	–
COc1cc([C@@H]2c3cc4c(cc3[C@@H](O[C@@H]3O[C@@H]5CO[C@@H](C)O[C@H]5[C@H](O)[C@H]3O)[C@H]3COC(=O)[C@H]23)OCO4)cc(OC)c1O [Etoposide, reference compound]	–	–	–	–	–	–	–	760	2.53	1920	IC50 ([1]; Homo sapiens, A549, 72 h, read-out: IC50 A549): 590 nM; IC50 ([2]; Homo sapiens, MDA-MB-231, 72 h, read-out: IC50 MDA-MB-231): 3360 nM; IC50 ([3]; Homo sapiens, K562, 72 h, read-out: IC50 K562): 760 nM; IC50 ([4]; Homo sapiens, HCT-116, 72 h, read-out: IC50 HCT116): 1860 nM; IC50 ([5]; Homo sapiens, SK-HEP1, 72 h, read-out: IC50 SK-HEP-1): 450 nM; IC50 ([6]; Homo sapiens, MRC5, 72 h, read-out: IC50 MRC-5): 11600 nM; IC50 ([7]; Homo sapiens, SNU-638, 72 h, read-out: IC50 SNU638): 480 nM
CCc1c2c(nc3ccc(OC(=O)N4CCC(N5CCCCC5)CC4)cc13)-c1cc3c(c(=O)n1C2)COC(=O)[C@]3(O)CC [Irinotecan]	–	–	–	–	–	–	–	1520	3.72	5650	–
CCC(C)C1NC(=O)C(Cc2ccccc2)N(C)C(=O)C2CCCNN2C(=O)C(CO)N(C)C(=O)C(CC(C)C)NC(=O)C(Cc2ccccc2)N(C)C(=O)C(C)NC(=O)C(C(C)C)N(C)C(=O)CCNC(=O)C(C)N(C)C1=O (stereo not shown) [Lenziamide A] (cyclo([X1][NMeF]I[NMeA][βAla][NMeV]A[NMeF]L[NMeS]); configuration not given here)	800	620	770	370	390	> 20000	440	–	–	–	IC50 [4]: 360 nM; growth of HCT116-5-FU resistant cell line [8]: effectively inhibited growth of HCT116-5-FU resistant cell line; IC50 ([8]; 72 h): 420 nM; Fold change (HCT116-5-FU/HCT116) ([8]; IC50 of HCT116-5-FU with respect to IC50 of HCT116): 1.16; sub G1 cell accumulation (cell death) ([9]; after G2/M arrest, high concentration): followed by sub G1 cell accumulation; G2/M cell cycle arrest ([9]; until 24 hours after treatment, 0-5 μM): G2/M cell cycle arrest was increased; early apoptosis cell population ([10]; 5 μM): about 20.37%; late apoptosis cell population ([10]; 5 μM): 51.40%; apoptosis ([10]; different concentrations of lenziamide A): apoptosis increased dependent on the concentration; tumor growth (volume, final weight) [11]: concentration-dependent tumor growth inhibitory effect; body weight (toxicity) ([11]; during administration period): no significant weight decrease; body weight [12]: without significant weight loss; growth of resistant tumor [12]: effectively inhibited growth of resistant tumor; expression of E-cadherin [13]: increased; expression of N-Cadherin and vimentin [13]: decreased; growth of tumor in the appendix [14]: also inhibited; metastasis of the tumor to other organs [14]: effectively inhibited
CCC(C)C1NC(=O)C(Cc2c[nH]c3ccccc23)N(C)C(=O)C2CCCNN2C(=O)C(CO)N(C)C(=O)C(CC(C)C)NC(C)C(Cc2ccccc2)N(C)C(=O)C(C)NC(=O)C(C(C)C)N(C)C(=O)CCNC(=O)C(C)N(C)C1=O (stereo not shown) [Lenziamide B]	430	230	360	200	220	> 20000	250	–	–	–	–
CC(C)CC1NC(C)C(Cc2ccccc2)N(C)C(=O)C(C)NC(=O)C(C(C)C)N(C)C(=O)CCNC(=O)C(C)N(C)C(=O)C(C(C)C)NC(=O)C(Cc2ccccc2)N(C)C(=O)C2CCCNN2C(=O)C(CO)N(C)C1=O (stereo not shown) [Lenziamide C]	760	960	650	520	530	> 20000	430	–	–	–	–
